Read-outs that look alike come from different tables or passages of the source.
Columns and labels:
human SGLT2 = molecular target: T1, human SGLT2 (Homo sapiens, UniProt P31639); assay: Inhibitory activity against methyl-α-D-glucopyranoside uptake, CHO cells stably expressing human SGLT2; format: cell-based; conditions: inhibition of SGLT2, Table 2-1; read-out: IC50 value
T1 construct: expressed in transfected cells; host or cells: CHO-K1
T1 sequence (P31639 1-672): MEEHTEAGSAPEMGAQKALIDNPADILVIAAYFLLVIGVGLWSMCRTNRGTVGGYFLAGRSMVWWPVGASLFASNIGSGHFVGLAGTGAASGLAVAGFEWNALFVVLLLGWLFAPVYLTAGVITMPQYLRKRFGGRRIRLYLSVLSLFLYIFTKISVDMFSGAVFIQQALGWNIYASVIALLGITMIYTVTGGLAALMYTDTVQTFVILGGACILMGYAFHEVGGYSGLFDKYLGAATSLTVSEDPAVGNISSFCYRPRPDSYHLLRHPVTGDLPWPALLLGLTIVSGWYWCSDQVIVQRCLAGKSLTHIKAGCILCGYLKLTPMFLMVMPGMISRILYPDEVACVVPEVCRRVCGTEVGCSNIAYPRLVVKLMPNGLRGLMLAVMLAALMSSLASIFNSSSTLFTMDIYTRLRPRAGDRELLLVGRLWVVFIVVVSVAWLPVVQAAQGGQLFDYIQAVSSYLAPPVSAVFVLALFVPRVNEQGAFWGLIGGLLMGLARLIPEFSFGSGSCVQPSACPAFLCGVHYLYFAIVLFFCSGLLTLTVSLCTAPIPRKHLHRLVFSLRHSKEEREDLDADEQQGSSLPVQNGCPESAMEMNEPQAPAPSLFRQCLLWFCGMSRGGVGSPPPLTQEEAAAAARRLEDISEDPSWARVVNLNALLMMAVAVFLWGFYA
From the text: Evaluation of inhibitory activity against methyl-α-D-glucopyranoside uptake of human Na^+-glucose cotransporter (SGLT1 and SGLT2)
2) Construction of Human SGLT2 Expression Vector
Human SGLT2 cDNA was amplified by PCR with a cDNA library derived from human kidney (Clontech) as a template, synthetic DNA primers and KOD+ DNA Polymerase. The amplified cDNA was inserted into pcRII-Topo vector by using a Topo TA Cloning Dual Promoter kit. E. coli competent cells (TPO10) were transformed with the plasmid vector, cultured in LB medium containing ampicillin (50 mg/L) to grow ampicillin-resistant clones. The plasmid vector containing human SGLT2 cDNA was purified from the clone in a standard manner. Human SGLT2 cDNA added restriction enzyme recognition sites (Xho I at 5′-end, Hind III at 3′-end) was amplified by PCR with the plasmid vector as a template, synthetic DNA primers containing an additional restriction enzyme recognition site and KOD+ DNA Polymerase. This amplified cDNA was digested with Xho I and Hind III, and ligated into expression vector pcDNA3.1(−) digested with Xho I and Hind III by using a Rapid DNA Ligation kit. E. coli competent cells (DH5α) were transformed with the ligated expression vector and grown in ampicillin-containing LB medium. Human SGLT2 expression vector was purified from the ampicillin-resistant clone in a standard manner.
3) Establishment of Cell Lines Stably Expressing Human SGLT1 or Human SGLT2
The human SGLT1 expression vector or the human SGLT2 expression vector was digested with the restriction enzyme Pvu I and transfected into CHO-Kl cells with FuGENE (Roche Diagonostics). After the transfection, the cells were cultured at 37° C. in the presence of 5% CO2 for about 3 weeks in DMEM medium (Gibco) containing penicillin (50 U/mL, SIGMA), streptomycin (50 mg/L, SIGMA), geneticin (200 mg/L, Nacalai Tesque, Inc., Japan) and 20% fetal bovine serum to obtain geneticin-resistant clones. Among these clones, clones stably expressing human SGLT1 or human SGLT2 were selected by the evaluating the sodium-dependent uptake activity of sugar (methyl-α-D-glucopyranoside).
4) Evaluation of Inhibitory Activity Against methyl-α-D-glucopyranoside uptake
Cell lines stably expressing human SGLT1 or human SGLT2 CHO were seeded in 96-well culture plates at a density of 30000 to 40000 cells/well and cultured for 4 to 6 days. The medium in these plates was removed and replaced by 150 μL/well pretreatment buffer (i.e., a buffer containing 140 mM choline chloride, 2 mM potassium chloride, 1 mM calcium chloride, 1 mM magnesium chloride, 10 mM 2-[4-(2-hydroxyethyl)-1-piperazinyl]ethanesulfonic acid and tris(hydroxymethyl)aminomethane, pH 7.4), and the plates were incubated at 37° C. for 20 minutes. The pretreatment buffer in the plates was removed, replaced by 50 μL/well fresh pretreatment buffer, and the plates were incubated at 37° C. for 20 minutes. Methyl-α-D-(U—^14C)glucopyranoside (6.3 mL, Amersham Pharmacia Biotech, 200 mCi/L) was added to and mixed with 100 mL buffer (i.e., a buffer containing 140 mM sodium chloride, 2 mM potassium chloride, 1 mM calcium chloride, 1 mM magnesium chloride, 1 mM methyl-α-D-glucopyranoside, 10 mM [4-(2-hydroxyethyl)-1-piperazinyl]ethanesulfonic acid and tris(hydroxymethyl)aminomethane, pH 7.4), which was used as uptake buffer. Test compounds were dissolved into uptake buffer and these test compound solutions were used for evaluating inhibitory activity. Uptake buffer without a test compound was used as a control solution. Moreover, for use in measuring baseline uptake in the absence of sodium, sodium-free solution was prepared in the same manner to contain 140 mM choline chloride instead of sodium chloride. The pretreatment buffer was removed from each well of the plates and replaced by 35 μL/well test compound solutions, control solution or sodium-free solution, and the plates were incubated at 37° C. for 45 minutes. […]

db/db mice = assay: Study for glucose lowering effect in db/db mouse; format: in vivo; conditions: Mus musculus, 6 hours
Procedure: Study for Glucose Lowering Effect in dB/dB Mouse
A study for glucose lowering effect was conducted using db/db mice (purchased from Clea Japan, Inc., male, 9 to 11 weeks old), type 2 diabetic model mice. On the day of the study, body weights and blood glucose levels were measured prior to the start of testing. Measurement of the blood glucose levels was performed using a simple blood glucose meter (manufactured by Bayer HealthCare, Dexter-Z II). The mice were allocated to some groups consisting of 5 mice each so that homogeneity of body weights or blood glucose levels among groups would be ensured. Blood collection was carried out by making an incision on the tip of the tail and taking the blood therefrom. On the day of the study, the test compounds were suspended in 0.5% carboxymethylcellulose solution (CMC solution), and the dosing solutions of which concentration was adjusted to either 0.3 mg/10 mL or 3 mg/10 mL were prepared. The dosing solutions were orally administered by gavage for mice in 10 mL/kg. To the control group, only a 0.5% CMC solution was orally administered in 10 mL/kg. Blood was collected prior to or sequentially after administration of test compounds by above method. The blood glucose levels were determined using a hexokinase method (AutoSera S GLU, manufactured by Daiichi Pure Chemicals Co., Ltd.). A percent reduction of blood glucose relative to control group at each time point after administration of test compounds was calculated by the following equation.
Percent reduction of blood glucose (%)={blood glucose level in the control group (mg/dL)-blood glucose level in the test compound group (mg/dL)}/blood glucose level in the control group (mg/dL)×100

[1] = po, 0.3 mg/kg administration, read-out: reduction of blood glucose 6 hours after administration
[2] = oral, 0.3 mg/kg, relative to control group, Table 3-1, read-out: Percent reduction of blood glucose (%) 6 hours after administration

`CCCc1ccc(Cc2cc3c(cc2C)CO[C@]32O[C@H](CO)[C@@H](O)[C@H](O)[C@H]2O)cc1` [Example 25, (1S,3′R,4′S,5′S,6′R)-3′,4′,5′,6′-tetrahydro-6′-(hydroxymethyl)-5-methyl-6-[(4-propylphenyl)methyl]-spiro[isobenzofuran-1(3H),2′-[2H]pyran]-3′,4′,5′-triol] gave an IC50 (human SGLT2) of 2.3 nM and an inhibition in vivo at 0.3 mg/kg (db/db mice; [1]) of no less than 25%.
`OC[C@H]1O[C@]2(OCc3cc(Cl)c(Cc4ccc(Cl)cc4)cc32)[C@H](O)[C@@H](O)[C@@H]1O` [Example 6, (1S,3′R,4′S,5′S,6′R)-5-chloro-6-[(4-chlorophenyl)methyl]-3′,4′,5′,6′-tetrahydro-6′-(hydroxymethyl)-spiro[isobenzofuran-1(3H),2′-[2H]pyran]-3′,4′,5′-triol] showed an IC50 (human SGLT2) of 1.3 nM and an inhibition in vivo at 0.3 mg/kg (db/db mice; [1]) of no less than 25%.
`CCOc1ccc(Cc2cc3c(cc2F)CO[C@]32O[C@H](CO)[C@@H](O)[C@H](O)[C@H]2O)cc1` [Example 17, (1S,3′R,4′S,5′S,6′R)-6-[(4-ethoxyphenyl)methyl]-5-fluoro-3′,4′,5′,6′-tetrahydro-6′-(hydroxymethyl)-spiro[isobenzofuran-1(3H),2′-[2H]pyran]-3′,4′,5′-triol] was tested, and the IC50 (human SGLT2) was 2.6 nM and the inhibition in vivo at 0.3 mg/kg (db/db mice; [2]) was 33%.
With `Cc1cc2c(cc1Cc1ccc(C(F)(F)F)cc1)[C@]1(OC2)O[C@H](CO)[C@@H](O)[C@H](O)[C@H]1O` [Example 26, (1S,3′R,4′S,5′S,6′R)-6-[(4-trifluoromethylphenyl)methyl]-3′,4′,5′,6′-tetrahydro-6′-(hydroxymethyl)-5-methyl-spiro[isobenzofuran-1(3H),2′-[2H]pyran]-3′,4′,5′-triol] the IC50 (human SGLT2) was 2.8 nM and the inhibition in vivo at 0.3 mg/kg (db/db mice; [1]) was no less than 25%.
With `COc1ccc(Cc2cc3c(cc2C)CO[C@]32O[C@H](CO)[C@@H](O)[C@H](O)[C@H]2O)cc1` [Example 23, (1S,3′R,4′S,5′S,6′R)-3′,4′,5′,6′-tetrahydro-6′-(hydroxymethyl)-6-[(4-methoxyphenyl)methyl]-5-methyl-spiro[isobenzofuran-1(3H),2′-[2H]pyran]-3′,4′,5′-triol] the IC50 (human SGLT2) was 1.5 nM and the inhibition in vivo at 0.3 mg/kg (db/db mice; [1]) was no less than 25%.
In the case of `CC(C)(C)c1ccc(Cc2cc3c(cc2Cl)CO[C@]32O[C@H](CO)[C@@H](O)[C@H](O)[C@H]2O)cc1` [Example 14, (1S,3′R,4′S,5′S,6′R)-6-[(4-tert-butylphenyl)methyl]-5-chloro-3′,4′,5′,6′-tetrahydro-6′-(hydroxymethyl)-spiro[isobenzofuran-1(3H),2′-[2H]pyran]-3′,4′,5′-triol], the IC50 (human SGLT2) is reported as 3.4 nM and the inhibition in vivo at 0.3 mg/kg (db/db mice; [1]) is reported as no less than 25%.
With `OC[C@H]1O[C@]2(OCc3cc(Cl)c(Cc4ccc(OC(F)(F)F)cc4)cc32)[C@H](O)[C@@H](O)[C@@H]1O` [Example 11, (1S,3′R,4′S,5′S,6′R)-5-chloro-6-[(4-trifluoromethoxyphenyl)methyl]-3′,4′,5′,6′-tetrahydro-6′-(hydroxymethyl)-spiro[isobenzofuran-1(3H),2′-[2H]pyran]-3′,4′,5′-triol] the IC50 (human SGLT2) was 1.9 nM and the inhibition in vivo at 0.3 mg/kg (db/db mice; [2]) was 45%.
Work on `CCc1ccc(Cc2cc3c(cc2F)CO[C@]32O[C@H](CO)[C@@H](O)[C@H](O)[C@H]2O)cc1` [Example 16, (1S,3′R,4′S,5′S,6′R)-6-[(4-ethylphenyl)methyl]-5-fluoro-3′,4′,5′,6′-tetrahydro-6′-(hydroxymethyl)-spiro[isobenzofuran-1(3H),2′-[2H]pyran]-3′,4′,5′-triol] yielded an IC50 (human SGLT2) of 1.5 nM and an inhibition in vivo at 0.3 mg/kg (db/db mice; [1]) of no less than 25%.
Work on `Cc1cc2c(cc1Cc1ccc(OC(F)(F)F)cc1)[C@]1(OC2)O[C@H](CO)[C@@H](O)[C@H](O)[C@H]1O` [Example 27, (1S,3′R,4′S,5′S,6′R)-6-[(4-trifluoromethoxyphenyl)methyl]-3′,4′,5′,6′-tetrahydro-6′-(hydroxymethyl)-5-methyl-spiro[isobenzofuran-1(3H),2′-[2H]pyran]-3′,4′,5′-triol] yielded an IC50 (human SGLT2) of 2.6 nM and an inhibition in vivo at 0.3 mg/kg (db/db mice; [1]) of no less than 25%.
`Cc1cc2c(cc1Cc1ccc(CCF)cc1)[C@]1(OC2)O[C@H](CO)[C@@H](O)[C@H](O)[C@H]1O` [Example 22, (1S,3′R,4′S,5′S,6′R)-6-[(4-(2-fluoroethyl)phenyl)methyl]-5-methyl-3′,4′,5′,6′-tetrahydro-6′-(hydroxymethyl)-spiro[isobenzofuran-1(3H),2′-[2H]pyran]-3′,4′,5′-triol] showed an IC50 (human SGLT2) of 1.1 nM and an inhibition in vivo at 0.3 mg/kg (db/db mice; [1]) of no less than 25%.
With `CC(=O)c1ccc(Cc2cc3c(cc2Cl)CO[C@]32O[C@H](CO)[C@@H](O)[C@H](O)[C@H]2O)cc1` [Example 12, (1S,3′R,4′S,5′S,6′R)-6-[(4-acetylphenyl)methyl]-5-chloro-3′,4′,5′,6′-tetrahydro-6′-(hydroxymethyl)-spiro[isobenzofuran-1(3H),2′-[2H]pyran]-3′,4′,5′-triol] the IC50 (human SGLT2) was 1.5 nM and the inhibition in vivo at 0.3 mg/kg (db/db mice; [2]) was 27%.
Work on `C#Cc1cc2c(cc1Cc1ccc(CC)cc1)[C@]1(OC2)O[C@H](CO)[C@@H](O)[C@H](O)[C@H]1O` [Example 31, (1S,3′R,4′S,5′S,6′R)-6-[(4-ethylphenyl)methyl]-5-ethynyl-3′,4′,5′,6′-tetrahydro-6′-(hydroxymethyl)-spiro[isobenzofuran-1(3H),2′-[2H]pyran]-3′,4′,5′-triol] yielded an IC50 (human SGLT2) of 2.1 nM and an inhibition in vivo at 0.3 mg/kg (db/db mice; [1]) of no less than 25%.
